Literature values as cited in patent US8481087B2, “Withania somnifera plant extract and method of preparation thereof” (National Brain Research Centre, priority 2008, dated 2013).

Test system: severely damaged neurons
Conditions: severely damaged neurons in vitro

## CC1=C(C)C(=O)O[C@@H]([C@](C)(O)[C@H]2CC[C@H]3[C@@H]4[C@@H]5O[C@@H]5[C@@]5(O)CC=CC(=O)[C@]5(C)[C@H]4CC[C@]23C)C1 [Withanolide-A]
  neurite regeneration and synapse reconstruction: regenerate neurites and reconstruct synapses
